Assay results: patent publication US6875451B2, “Compositions and methods for the treatment of primary and metastatic neoplastic diseases using arsenic compounds” (PolaRx Biopharmaceuticals Inc., priority 1997, dated 2005)

How the values were obtained:
Assay type in all cases: cell-based
[1] = test system: MDA-MB-435; experiment: SRB growth assay, 6 days exposure, breast cancer; settings: MDA-MB-435, 6 days
Procedure: (§1) Arsenic trioxide (1 mg/ml, 10 mg/ampoule, manufactured by Taylor Pharmaceuticals, Decatur, Ill.) was tested at five concentrations each at 10-fold dilutions, i.e., 10^−5, 10^−6, 10^−7, 10^−8 and 10^−9 μg/ml.
(§2) The in vitro tests were performed by incubating the test cells in the presence of the indicated concentration of arsenic trioxide under standard culture conditions for a designated period of time, which is followed by a sulforhodamine B (SRB) protein assay to estimate cell viability or growth. The cell lines are organized into subpanels according to the origin of the cell lines, e.g., leukemia, breast cancer, etc. A description of the cell lines and method of testing is described in Monk et al. (1997, Anticancer Drug Des. 12:533-41) and Weinstein et al., (1997, Science 275:343-9), which are incorporated herein in their entirety.
(§3) The measurement of an effect is expressed in Percentage Growth (PG). The measured effect of the compound on a cell line is calculated according to one or the other of the following two expressions: If (Mean ODtest−Mean ODzero)≧0. then PG=100×(Mean ODtest−Mean ODzero)/(Mean ODctrl−Mean ODzero) If (Mean ODtest−Mean ODzero)<0. then PG=100×(Mean ODtest−Mean ODzero)/(Mean ODzero where: • Mean ODzero=the average of optical density measurements of SRB-derived color just before exposure of cells to the test compounds; • Mean ODtest=the average of optical density measurements of SRB-derived color after exposure of cells to the test compound for a designated period of time; and • Mean ODctrl=the average of optical density measurements of SRB-derived color after with no exposure of cells to the test compound for a designated period of time
(§4) The first two columns describe the subpanel (e.g., leukemia) and cell line (e.g., CCRF-CEM) involved. The next two columns list the Mean ODzero and Mean ODctrl; the next five columns list the Mean ODtest for each of five different concentrations. Each concentration is expressed as the log10 (molar or μg/ml). The next five columns list the calculated PGs for each concentration. The response parameters GI50, TGI and LC50 are interpolated values representing the concentrations at which the PG is +50, 0, and −50, respectively. Sometimes these response parameters cannot be obtained by interpolation. If, for instance, all of the PGs in a given row exceed +50, then none of the three parameters can be obtained by interpolation. In such a case, the value given for each response parameter is the highest concentration tested and is preceded by a “>” sign. This practice is extended similarly to the other possible situations where a response parameter cannot be obtained by interpolation.
(§5) In the first set, the cells from 56 different cancer cell lines were exposed to five concentrations of arsenic trioxide continuously for two days prior to performing the SRB assay. In the second set, the cells from 50 different cell lines (a subset of the first 56 cell lines, plus the renal cancer cell line 786-0) were exposed continuously for six days prior to the SRB assay.

[2] = test system: MDA-N; experiment: SRB growth assay, 6 days exposure, breast cancer
Procedure: as §1, §2, §3, §4, §5

[3] = test system: MDA-MB-231/ATCC; experiment: SRB growth assay, 6 days exposure, breast cancer
Procedure: as §1, §2, §3, §4, §5

[4] = test system: BR-549; experiment: SRB growth assay, 6 days exposure, breast cancer; settings: BT-549, 6 days
Procedure: as §1, §2, §3, §4, §5

[5] = test system: T-47D; experiment: SRB growth assay, 6 days exposure, breast cancer
Procedure: as §1, §2, §3, §4, §5

[6] = test system: OVCAR-8; experiment: SRB growth assay, 2 days exposure, ovarian cancer
Procedure: as §1, §2, §3, §4, §5

[7] = test system: OVCAR-5; experiment: SRB growth assay, 2 days exposure, ovarian cancer
Procedure: as §1, §2, §3, §4, §5

[8] = test system: SK-OV-3; experiment: SRB growth assay, 2 days exposure, ovarian cancer
Procedure: as §1, §2, §3, §4, §5

[9] = test system: OVCAR-3; experiment: SRB growth assay, 2 days exposure, ovarian cancer
Procedure: as §1, §2, §3, §4, §5

[10] = test system: IGROV1; experiment: SRB growth assay, 2 days exposure, ovarian cancer
Procedure: as §1, §2, §3, §4, §5

[11] = read-out: LC50 (the source's name)

arsenic trioxide
TGI [1]: 3.10E−06
Mean Optical Densities ([1]; Log 10 Concentration −4.9): 0.021
Percent Growth ([1]; Log 10 Concentration −4.9): −62%
Mean Optical Densities ([1]; Log 10 Concentration −5.9): 0.631
Percent Growth ([1]; Log 10 Concentration −5.9): 40%
Mean Optical Densities ([1]; Log 10 Concentration −6.9): 0.865
Percent Growth ([1]; Log 10 Concentration −6.9): 56%
Mean Optical Densities ([1]; Log 10 Concentration −7.9): 1.470
Percent Growth ([1]; Log 10 Concentration −7.9): 98%
Mean Optical Densities ([1]; Log 10 Concentration −8.9): 1.276
Percent Growth ([1]; Log 10 Concentration −8.9): 85%
TGI [2]: 9.55E−06
Mean Optical Densities ([2]; Log 10 Concentration −4.9): 0.026
Percent Growth ([2]; Log 10 Concentration −4.9): −9%
Mean Optical Densities ([2]; Log 10 Concentration −5.9): 1.738
Percent Growth ([2]; Log 10 Concentration −5.9): 65%
Mean Optical Densities ([2]; Log 10 Concentration −6.9): 2.606
Percent Growth ([2]; Log 10 Concentration −6.9): 98%
Mean Optical Densities ([2]; Log 10 Concentration −7.9): 2.616
Percent Growth ([2]; Log 10 Concentration −7.9): 99%
Mean Optical Densities ([2]; Log 10 Concentration −8.9): 2.468
Percent Growth ([2]; Log 10 Concentration −8.9): 93%
CC50 [2, 11]: > 12.6 µM
TGI [3]: 3.18E−06
Mean Optical Densities ([3]; Log 10 Concentration −4.9): −0.001
Percent Growth ([3]; Log 10 Concentration −4.9): −100%
Mean Optical Densities ([3]; Log 10 Concentration −5.9): 0.563
Percent Growth ([3]; Log 10 Concentration −5.9): 67%
Mean Optical Densities ([3]; Log 10 Concentration −6.9): 0.771
Percent Growth ([3]; Log 10 Concentration −6.9): 102%
Mean Optical Densities ([3]; Log 10 Concentration −7.9): 0.764
Percent Growth ([3]; Log 10 Concentration −7.9): 101%
Mean Optical Densities ([3]; Log 10 Concentration −8.9): 0.759
Percent Growth ([3]; Log 10 Concentration −8.9): 100%
GI50 [4]: 2.22 µM
TGI [4]: 4.24E−06
Mean Optical Densities ([4]; Log 10 Concentration −4.9): 0.018
Percent Growth ([4]; Log 10 Concentration −4.9): −84%
Mean Optical Densities ([4]; Log 10 Concentration −5.9): 1.697
Percent Growth ([4]; Log 10 Concentration −5.9): 94%
Mean Optical Densities ([4]; Log 10 Concentration −6.9): 1.963
Percent Growth ([4]; Log 10 Concentration −6.9): 110%
Mean Optical Densities ([4]; Log 10 Concentration −7.9): 1.940
Percent Growth ([4]; Log 10 Concentration −7.9): 108%
Mean Optical Densities ([4]; Log 10 Concentration −8.9): 1.876
Percent Growth ([4]; Log 10 Concentration −8.9): 105%
CC50 [4, 11]: 8.08 µM
TGI [5]: 2.90E−06
Mean Optical Densities ([5]; Log 10 Concentration −4.9): 0.027
Percent Growth ([5]; Log 10 Concentration −4.9): −73%
Mean Optical Densities ([5]; Log 10 Concentration −5.9): 0.398
Percent Growth ([5]; Log 10 Concentration −5.9): 41%
Mean Optical Densities ([5]; Log 10 Concentration −6.9): 0.539
Percent Growth ([5]; Log 10 Concentration −6.9): 61%
Mean Optical Densities ([5]; Log 10 Concentration −7.9): 0.336
Percent Growth ([5]; Log 10 Concentration −7.9): 33%
Mean Optical Densities ([5]; Log 10 Concentration −8.9): 0.883
Percent Growth ([5]; Log 10 Concentration −8.9): 108%
TGI [6]: >0.0126 ng/mL
Percent Growth ([6]; log10 conc −4.9): 28%
Percent Growth ([6]; log10 conc −5.9): 80%
Percent Growth ([6]; log10 conc −6.9): 84%
Percent Growth ([6]; log10 conc −7.9): 92%
Percent Growth ([6]; log10 conc −8.9): 92%
TGI [7]: >0.0126 ng/mL
Percent Growth ([7]; log10 conc −4.9): 34%
Percent Growth ([7]; log10 conc −5.9): 97%
Percent Growth ([7]; log10 conc −6.9): 93%
Percent Growth ([7]; log10 conc −7.9): 103%
Percent Growth ([7]; log10 conc −8.9): 105%
TGI [8]: >0.0126 ng/mL
Percent Growth ([8]; log10 conc −4.9): 40%
Percent Growth ([8]; log10 conc −5.9): 100%
Percent Growth ([8]; log10 conc −6.9): 98%
Percent Growth ([8]; log10 conc −7.9): 97%
Percent Growth ([8]; log10 conc −8.9): 94%
TGI [9]: >0.0126 ng/mL
Percent Growth ([9]; log10 conc −4.9): 12%
Percent Growth ([9]; log10 conc −5.9): 90%
Percent Growth ([9]; log10 conc −6.9): 97%
Percent Growth ([9]; log10 conc −7.9): 99%
Percent Growth ([9]; log10 conc −8.9): 101%
TGI [10]: >0.0126 ng/mL
Percent Growth ([10]; log10 conc −4.9): 18%
Percent Growth ([10]; log10 conc −5.9): 102%
Percent Growth ([10]; log10 conc −6.9): 105%
Percent Growth ([10]; log10 conc −7.9): 118%
Percent Growth ([10]; log10 conc −8.9): 111%
